Results as given in patent US7091202B2, “4-arylspirocycloalkyl-2-aminopyrimidine carboxamide KCNQ potassium channel modulators” (Bristol-Myers Squibb Company, priority 2004, dated 2006).

target: T1, hQ23 (HEK-293 cell line stably transfected with one of the members of the KCNQ family) (Homo sapiens, UniProt O43525+O43526); experiment: Thallium flux assay for KCNQ channel blockers (FLIPR, BTC dye); format: cell-based; details: Table 2; thallium flux, HEK-293
T1 construct: expressed in transfected cells; host or cells: HEK-293, stably transfected
Protocol: Thallium Flux Assay for KCNQ channel blockers. Approximately 20,000 cells/well of an HEK-293 cell line stably transfected with one of the members of the KCNQ family were plated into clear-bottom, black-walled, poly-D-lysine coated, 384 well assay plates in 20 μl/well of low chloride plating medium. Low chloride plating medium was composed of the following: sodium gluconate, 109 mM; potassium gluconate, 5.4 mM; hemi-calcium gluconate, 3.6 mM; magnesium sulfate, 0.8 mM; sodium bicarbonate, 26.2 mM; sodium phosphate monobasic, 1.2 mM; glutamine, 2 mM; glucose, 5 mM; HEPES (pH 7.3) 10 mM, 10× concentration of vitamins (Gibco/LifeTechnologies catalog #11120-052) and 1× concentration of amino acids (Gibco/LifeTechnologies catalog #11130-051).
Following overnight incubation in a 5% CO2 incubator at 37° C., the cells in the plates were loaded with 20 μl/well of a dye loading solution containing the acetomethoxy ester of the thallium-sensitive fluorescent dye BTC, BTC-AM (2 μM) and pluronic acid (0.02% w/v) in chloride free assay buffer. Chloride free assay buffer was composed of the following: sodium gluconate, 140 mM; potassium gluconate, 2.5 mM; hemi-calcium gluconate, 6 mM; hemi-magnesium gluconate, 2 mM; glucose, 5 mM; HEPES (pH 7.3), 10 mM.
Following incubation in the dye loading solution for from 45–90 min at room temperature, the dye loading solution was removed by aspiration and replaced with 40 μl/well of chloride free assay buffer.
Prior to addition to cell plates, test compound and standard compounds were dissolved in DMSO to 3 mM concentration. Compounds were then diluted from the 3 mM stock to 100-fold over the final assay concentration in DMSO. Finally, compounds in DMSO were diluted from 100-fold over the final assay concentration to 5-fold over the final assay concentration in chloride free assay buffer.
Ten μl/well of compounds at 5-fold over the final assay concentration were then added to the cell plates. This represents a 1:5 dilution, yielding the final test concentration. The wells used for test compounds were A1–P20. Wells A21–P22 contained a standard ‘blocker’ and a fully efficacious concentration (positive control). Wells A23–P24 contained chloride free assay buffer containing 1% DMSO (negative control).
Following addition of test compounds, the plates were loaded onto the Molecular Devices FLIPR. The 488 nm line of the argon laser was used to excite the BTC and the emission filter was a 540(+/−30) nm. Images were collected at 1 Hz. Ten seconds of baseline were collected and then the FLIPR was used to add 13 μl/well of a stimulus buffer composed of Tl2SO4, 25 mM; sodium gluconate, 30 mM; potassium sulfate, 50 mM; hemi-calcium gluconate, 6 mM; hemi-magnesium gluconate, 2 mM; glucose, 5 mM; HEPES (pH 7.3), 10 mM in chloride free assay buffer. Images were collected for an additional 60 seconds.
For data analysis, the amplitude of the average of the negative controls was subtracted from all wells. The amplitudes of the test compounds were then compared to the value of four standard deviations of the negative control wells. The lowest concentration of a test compound sufficient to generate a signal amplitude greater than or equal to four standard deviations from the amplitude of the negative controls was defined as the minimal active concentration.
For generating IC50 values, compounds were serially diluted in 1:3 volume increments to produce a 10 point concentration series. IC50 values were calculated by fitting the resulting amplitudes to a single-site logistic equation. IC50 was defined as the concentration of test compound required to yield 50% of the response of the positive control.

T1 sequence (O43526 whole entry): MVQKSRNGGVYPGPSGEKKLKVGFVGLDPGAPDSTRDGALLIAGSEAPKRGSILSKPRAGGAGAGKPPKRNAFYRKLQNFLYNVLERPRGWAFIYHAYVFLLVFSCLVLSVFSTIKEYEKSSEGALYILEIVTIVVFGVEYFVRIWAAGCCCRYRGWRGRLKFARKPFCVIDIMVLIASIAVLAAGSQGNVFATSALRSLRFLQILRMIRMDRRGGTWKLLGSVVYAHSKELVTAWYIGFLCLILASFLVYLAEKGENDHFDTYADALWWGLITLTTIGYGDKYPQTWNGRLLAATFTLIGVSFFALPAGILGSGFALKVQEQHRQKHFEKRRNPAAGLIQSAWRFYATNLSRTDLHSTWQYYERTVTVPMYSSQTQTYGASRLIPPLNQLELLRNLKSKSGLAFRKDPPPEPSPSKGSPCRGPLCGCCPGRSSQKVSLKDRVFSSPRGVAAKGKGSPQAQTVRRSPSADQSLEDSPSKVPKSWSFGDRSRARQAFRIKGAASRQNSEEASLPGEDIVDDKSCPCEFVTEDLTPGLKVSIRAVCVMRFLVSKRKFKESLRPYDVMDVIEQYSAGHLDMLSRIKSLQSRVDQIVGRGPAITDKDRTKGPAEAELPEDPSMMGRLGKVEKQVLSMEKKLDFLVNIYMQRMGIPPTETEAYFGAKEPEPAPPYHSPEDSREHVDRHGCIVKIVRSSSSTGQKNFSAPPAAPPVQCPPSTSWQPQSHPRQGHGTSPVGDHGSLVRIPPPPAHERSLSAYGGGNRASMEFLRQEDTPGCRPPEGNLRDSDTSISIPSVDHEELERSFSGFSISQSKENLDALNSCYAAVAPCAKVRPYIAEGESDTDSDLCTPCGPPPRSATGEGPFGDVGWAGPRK
T1 sequence (O43525 whole entry): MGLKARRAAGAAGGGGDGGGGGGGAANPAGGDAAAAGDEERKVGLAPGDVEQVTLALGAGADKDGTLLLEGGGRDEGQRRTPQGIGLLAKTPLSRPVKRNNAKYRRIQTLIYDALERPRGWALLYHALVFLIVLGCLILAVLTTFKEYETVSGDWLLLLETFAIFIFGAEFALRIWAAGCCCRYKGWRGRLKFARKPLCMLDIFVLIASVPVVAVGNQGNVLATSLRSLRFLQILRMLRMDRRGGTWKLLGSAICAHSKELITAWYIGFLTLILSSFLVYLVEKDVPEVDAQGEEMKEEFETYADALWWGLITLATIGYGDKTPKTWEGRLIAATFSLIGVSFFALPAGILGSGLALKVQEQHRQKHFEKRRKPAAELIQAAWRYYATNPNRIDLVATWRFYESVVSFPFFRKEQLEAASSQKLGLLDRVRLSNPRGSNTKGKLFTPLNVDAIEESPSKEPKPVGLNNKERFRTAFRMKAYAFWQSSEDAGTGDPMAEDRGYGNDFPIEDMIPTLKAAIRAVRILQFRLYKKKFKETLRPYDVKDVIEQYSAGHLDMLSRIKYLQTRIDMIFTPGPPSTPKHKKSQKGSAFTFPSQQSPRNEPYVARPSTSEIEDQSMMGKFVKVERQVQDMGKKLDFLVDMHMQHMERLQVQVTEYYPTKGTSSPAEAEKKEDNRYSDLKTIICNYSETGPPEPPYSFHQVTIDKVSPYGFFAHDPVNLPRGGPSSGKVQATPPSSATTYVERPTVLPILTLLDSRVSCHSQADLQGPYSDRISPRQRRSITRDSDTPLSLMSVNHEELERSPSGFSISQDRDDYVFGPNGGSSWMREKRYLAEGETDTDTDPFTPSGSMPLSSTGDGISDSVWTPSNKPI

Compound | EC50 [nM]
CC1CCCN(c2ncc(C(=O)N3CCc4ccccc4C3)c(C3(c4ccccc4)CC3)n2)C1 (stereo not drawn) [Example 25, isoquinoline, 1,2,3,4-tetrahydro-2-[[2-(3-methyl-1-piperidinyl)-4-(1-phenylcyclopropyl)-5-pyrimidinyl]carbonyl]-] | 945
CCN(C(=O)c1cnc(N2CCN(C)CC2)nc1C1(c2ccccc2)CC1)C1CCCCC1 [Example 27, 5-pyrimidinecarboxamide, N-cyclohexyl-N-ethyl-2-(4-methyl-1-piperazinyl)-4-(1-phenylcyclopropyl)-] | 470
CCN(Cc1ccccc1)C(=O)c1cnc(NC2CCC(C)CC2)nc1C1(c2ccccc2)CC1 (stereo not drawn) [Example 29, 5-pyrimidinecarboxamide, N-ethyl-2-[(4-methylcyclohexyl)amino]-4-(1-phenylcyclopropyl)-N-(phenylmethyl)-] | 607
CCN(Cc1ccccc1)C(=O)c1cnc(N2CCCC(C)C2)nc1C1(c2ccccc2)CC1 (stereo not drawn) [Example 30, 5-pyrimidinecarboxamide, N-ethyl-2-(3-methyl-1-piperidinyl)-4-(1-phenylcyclopropyl)-N-(phenylmethyl)-] | 634
O=C(NCc1ccc2c(c1)OCO2)c1cnc(N2CCCC2)nc1C1(c2ccccc2)CC1 [Example 32, 5-pyrimidinecarboxamide, N-(1,3-benzodioxol-5-ylmethyl)-4-(1-phenylcyclopropyl)-2-(1-pyrrolidinyl)-] | 413
CC1CCC(Nc2ncc(C(=O)N[C@H](C)c3cccc4ccccc34)c(C3(c4ccccc4)CC3)n2)CC1 (stereo partly drawn) [Example 33, 5-pyrimidinecarboxamide, 2-[(4-methylcyclohexyl)amino]-N-[(1R)-1-(1-naphthalenyl)ethyl]-4-(1-phenylcyclopropyl)-] | 293
CC1CCN(c2ncc(C(=O)N[C@H](C)c3cccc4ccccc34)c(C3(c4ccccc4)CC3)n2)CC1 [Example 35, 5-pyrimidinecarboxamide, 2-(4-methyl-1-piperidinyl)-N-[(1R)-1-(1-naphthalenyl)ethyl]-4-(1-phenylcyclopropyl)-] | 212
CC1CCCN(c2ncc(C(=O)NCc3cccc4ccccc34)c(C3(c4ccccc4)CC3)n2)C1 (stereo not drawn) [Example 37, 5-pyrimidinecarboxamide, 2-(3-methyl-1-piperidinyl)-N-(1-naphthalenylmethyl)-4-(1-phenylcyclopropyl)-] | 214
CC1CCC(Nc2ncc(C(=O)NCc3ccc(Cl)cc3Cl)c(C3(c4ccccc4)CC3)n2)CC1 (stereo not drawn) [Example 39, 5-pyrimidinecarboxamide, N-[(2,4-dichlorophenyl)methyl]-2-[(4-methylcyclohexyl)amino]-4-(1-phenylcyclopropyl)-] | 551
CC1CCCN(c2ncc(C(=O)NCc3ccc(Cl)cc3Cl)c(C3(c4ccccc4)CC3)n2)C1 (stereo not drawn) [Example 40, 5-pyrimidinecarboxamide, N-[(2,4-dichlorophenyl)methyl]-2-(3-methyl-1-piperidinyl)-4-(1-phenylcyclopropyl)-] | 326
CC1CCN(c2ncc(C(=O)NCc3ccc(F)cc3F)c(C3(c4ccccc4)CC3)n2)CC1 [Example 43, 5-pyrimidinecarboxamide, N-[(2,4-difluorophenyl)methyl]-2-(4-methyl-1-piperidinyl)-4-(1-phenylcyclopropyl)-] | 919
CC1CCC(Nc2ncc(C(=O)NCc3cc(F)cc(C(F)(F)F)c3)c(C3(c4ccccc4)CC3)n2)CC1 (stereo not drawn) [Example 44, 5-pyrimidinecarboxamide, N-[[3-fluoro-5-(trifluoromethyl)phenyl]methyl]-2-[(4-methylcyclohexyl)amino]-4-(1-phenylcyclopropyl)-] | 44
O=C(NCc1cc(F)cc(C(F)(F)F)c1)c1cnc(N2CCCC2)nc1C1(c2ccccc2)CC1 [Example 45, 5-pyrimidinecarboxamide, N-[[3-fluoro-5-(trifluoromethyl)phenyl]methyl]-4-(1-phenylcyclopropyl)-2-(1-pyrrolidinyl)-] | 209
CN1CCN(c2ncc(C(=O)NCc3cc(F)cc(C(F)(F)F)c3)c(C3(c4ccccc4)CC3)n2)CC1 [Example 46, 5-pyrimidinecarboxamide, N-[[3-fluoro-5-(trifluoromethyl)phenyl]methyl]-2-(4-methyl-1-piperazinyl)-4-(1-phenylcyclopropyl)-] | 384

Next, values leading:

EC50 [nM] | Compound
546 | CC1CCN(c2ncc(C(=O)N3CCc4ccccc4C3)c(C3(c4ccccc4)CC3)n2)CC1 [Example 26, isoquinoline, 1,2,3,4-tetrahydro-2-[[2-(4-methyl-1-piperidinyl)-4-(1-phenylcyclopropyl)-5-pyrimidinyl]carbonyl]-]
301 | CN(C)CCNc1ncc(C(=O)N(C)CCc2ccccc2)c(C2(c3ccccc3)CC2)n1 [Example 28, 5-pyrimidinecarboxamide, 2-[[2-(dimethylamino)ethyl]amino]-N-methyl-4-(1-phenylcyclopropyl)-N-(2-phenylethyl)-]
475 | CCN(Cc1ccccc1)C(=O)c1cnc(N2CCC(C)CC2)nc1C1(c2ccccc2)CC1 [Example 31, 5-pyrimidinecarboxamide, N-ethyl-2-(4-methyl-1-piperidinyl)-4-(1-phenylcyclopropyl)-N-(phenylmethyl)-]
107 | CC1CCCN(c2ncc(C(=O)N[C@H](C)c3cccc4ccccc34)c(C3(c4ccccc4)CC3)n2)C1 (stereo partly drawn) [Example 34, 5-pyrimidinecarboxamide, 2-(3-methyl-1-piperidinyl)-N-[(1R)-1-(1-naphthalenyl)ethyl]-4-(1-phenylcyclopropyl)-]
586 | CC1CCC(Nc2ncc(C(=O)NCc3cccc4ccccc34)c(C3(c4ccccc4)CC3)n2)CC1 (stereo not drawn) [Example 36, 5-pyrimidinecarboxamide, 2-[(4-methylcyclohexyl)amino]-N-(1-naphthalenylmethyl)-4-(1-phenylcyclopropyl)-]
381 | CC1CCN(c2ncc(C(=O)NCc3cccc4ccccc34)c(C3(c4ccccc4)CC3)n2)CC1 [Example 38, 5-pyrimidinecarboxamide, 2-(4-methyl-1-piperidinyl)-N-(1-naphthalenylmethyl)-4-(1-phenylcyclopropyl)-]
220 | CC1CCN(c2ncc(C(=O)NCc3ccc(Cl)cc3Cl)c(C3(c4ccccc4)CC3)n2)CC1 [Example 41, 5-pyrimidinecarboxamide, N-[(2,4-dichlorophenyl)methyl]-2-(4-methyl-1-piperidinyl)-4-(1-phenylcyclopropyl)-]
413 | CC1CCC(Nc2ncc(C(=O)NCc3ccc(F)cc3F)c(C3(c4ccccc4)CC3)n2)CC1 (stereo not drawn) [Example 42, 5-pyrimidinecarboxamide, N-[(2,4-difluorophenyl)methyl]-2-[(4-methylcyclohexyl)amino]-4-(1-phenylcyclopropyl)-]
41 | CC1CCCN(c2ncc(C(=O)NCc3cc(F)cc(C(F)(F)F)c3)c(C3(c4ccccc4)CC3)n2)C1 (stereo not drawn) [Example 47, 5-pyrimidinecarboxamide, N-[[3-fluoro-5-(trifluoromethyl)phenyl]methyl]-2-(3-methyl-1-piperidinyl)-4-(1-phenylcyclopropyl)-]

same assay, conditions: hQ23 cells, thallium flux

EC50 [nM] | Compound
39 | 5-pyrimidinecarboxamide, 4-[1-(4-fluorophenyl)cyclopentyl]-N,N-bis(1-methylethyl)-2-(3-methyl-1-piperidinyl)- [Example 224]
